Series [1] relates to bone marrow-derived dendritic cells (BMDCs) or bone marrow-derived macrophages (BMDMs). The experiment in a line: activation of immune cells, cleavable vs uncleavable complex (ELISA). Type of series: cell-based. To be noted: given as liposome, 24 hours. On the procedure: Degree of activation of immune cells was confirmed using the cholesterol-resiquimod complex, in which cholesterol is not cleaved at a specific point of time as a control. […] In addition, a liquid culture was obtained, centrifuged at 490 g for 5 minutes, thereby obtaining only a supernatant, and ELISA was carried out using a BD OptEIA™ kit.

Another series deals with carboxylesterase. The following applies: nanoliposome, 30 units of carboxylesterase, 37° C.
Series [2] in a line: toxicity in vivo (serum cytokine, body weight). Set-up: species or system C57BL/6 mouse. The following applies: 25 μg/100 μL subcutaneous. On the procedure: In addition, the collected blood was centrifuged (4° C., 13,000 rpm, 20 min) to separate serum and blood cells, and a cytokine amount was measured through ELISA using the serum.
The test system of series [3] is B16-OVA melanoma cell line. As to the kind of experiment: anticancer effect with OVA antigen in B16-OVA melanoma model. The following applies: intratumoral injection on day 0, 3, 6 and 9.
Protocol: More specifically, 5×10^5 cells of a B16-OVA cell line were subcutaneously injected into the right flank of a C57BL/6 mouse, and the time when a tumor size reached approximately 50 mm^3 was set to day 0, each of phosphate-buffered saline (control), an OVA antigen (OVA), resiquimod+OVA antigen (R848+OVA), and a nanoliposome including a cholesterol-resiquimod complex, +OVA antigen (Lipo(Chol-R848)+OVA) were administered into a mouse through intratumoral injection on day 0, 3, 6 and 9. 10 μg of the OVA antigen was administered, 25 μg of resiquimod was administered, and 25 μg (based on resiquimod) of the nanoliposome including the cholesterol-resiquimod complex was administered. In addition, a mouse survival rate and a cancer size were measured.

`CCOCc1nc2c(NC(=O)OC3CCC4(C)C(=CCC5C4CCC4(C)C(C(C)CCCC(C)C)CCC54)C3)nc3ccccc3c2n1CC(C)(C)O` (stereo not drawn) [Chol-R848, cholesterol-conjugated resiquimod]: the “activation of immune cells” value in series [1] is “effectively activates immune cells”. Also, the “cholesterol cleavage by enzyme” value in the series with carboxylesterase is “cleaved”.

For `CCOCc1nc2c(N)nc3ccccc3c2n1CC(C)(C)O` [resiquimod], in series [2], the body weight result is given as “dramatically changing a body weight” and the “cytokine amount in serum” value is recorded as “rapidly increased in serum at an early stage”.

B1: OVA antigen: ovalbumin (OVA) antigen (protein, UniProt P01012 2-386, looked up)
Ovalbumin: GSIGAASMEFCFDVFKELKVHHANENIFYCPIAIMSALAMVYLGAKDSTRTQINKVVRFDKLPGFGDSIEAQCGTSVNVHSSLRDILNQITKPNDVYSFSLASRLYAEERYPILPEYLQCVKELYRGGLEPINFQTAADQARELINSWVESQTNGIIRNVLQPSSVDSQTAMVLVNAIVFKGLWEKAFKDEDTQAMPFRVTEQESKPVQMMYQIGLFRVASMASEKMKILELPFASGTMSMLVLLPDEVSGLEQLESIINFEKLTEWTSSNVMEERKIKVYLPRMKMEEKYNLTSVLMAMGITDVFSSSANLSGISSAESLKISQAVHAAHAEINEAGREVVGSAEAGVDAASVSEEFRADHPFLFCIKHIATNAVLFFGRCVSP
B1: the mouse survival entry in series [3] is “no mouse surviving three weeks or more”. Moreover, the cancer size entry in series [3] (10 μg OVA, 25 μg resiquimod basis) was “dramatically increased”.

Values taken from patent publication US20220008411A1, “TOLL-LIKE RECEPTOR 7 OR 8 AGONIST-CHOLESTEROL COMPLEX AND METHOD OF PREPARING SAME” (RESEARCH & BUSINESS FOUNDATION SUNGKYUNKWAN UNIVERSITY, priority 2019, published 2022).
